# Source: patent US20180119123A1, “CRISPR/CAS-RELATED METHODS AND COMPOSITIONS FOR TREATING HIV INFECTION AND AIDS” (EDITAS MEDICINE, INC., priority 2015, published 2018)
# “Also recorded” adds a separate entry of the source.
# Tested on: human mobilized peripheral blood CD34^+ HSCs
# Assay: Fold change in CD34+ cell number (trypan blue count) 96 hours after Nucleofection
# Type: cell-based
# Procedure: Human CD34^+ HSCs cells from mobilized peripheral blood (AllCells) were thawed into StemSpan Serum-Free Expansion Medium (SFEM™, StemCell Technologies) containing 100 ng/mL each of the following cytokines: human stem cell factor (SCF), thrombopoietin (TPO), and flt-3 ligand (FL) (all from Peprotech). Cells were grown for 3 days in a humidified incubator and 5% CO2 20% O2. […] The published use of UM171 involved prolonged exposure of HSCs to the small molecule for ex vivo expansion of HSCs. In the current experiment, HSCs were exposed to UM171 for 2 hours before and 24 hours after delivery of Cas9 and gRNA plasmid DNA. This UM171 treatment protocol was based on pilot studies performed by the inventors that indicated acute pre-treatment with UM171 before lentivirus vector mediated gene delivery improved HSC viability compared to HSCs treated with vehicle (dimethylsulfoxide, DMSO, Sigma) alone. […] At 96 hours after Nucleofection™, CD34^+ cells were counted for by trypan blue exclusion and divided into 3 portions for the following analyses: a) flow cytometry analysis for assessment of viability by co-staining with 7-Aminoactinomycin-D (7-AAD) and allophycocyanin (APC)-conjugated Annexin-V antibody (ebioscience); b) flow cytometry analysis for maintenance of HSC phenotype (after co-staining with phycoerythrin (PE)-conjugated anti-human CD34 antibody and fluorescein isothicyanate (FITC)-conjugated anti-human CD90, both from BD Bioscience; c) hematopoietic colony forming cell (CFC) analysis by plating 1500 cells in semi-solid methylcellulose based Methocult medium (StemCell Technologies) that supports differentiation of erythroid and myeloid blood cell colonies from HSCs and serves as a surrogate assay to evaluate HSC multipotency and differentiation potential ex vivo; d) genomic DNA analysis for detection of editing at the CCR5 locus. […]
smiles,measurement,setting,value
"Cn1nnc(-c2ccc3c(c2)[nH]c2nc(Cc4ccccc4)nc(N[C@H]4CC[C@H](N)CC4)c23)n1 [UM171, (1r,4r)-N1-(2-benzyl-7-(2-methyl-2H-tetrazol-5-yl)-9H-pyrimido[4,5-b]indol-4-yl)cyclohexane-1,4-diamine]",Fold expansion / proliferation potential of Nucleofected CD34+ cells with UM171 pre-treatment versus without,"40 nM UM171, S. aureus or S. pyogenes Cas9 and CXCR4 gRNA plasmids",higher fold-expansion; also recorded: maintain proliferation potential
same,Fold change in cell number of CD34^+ cells (96 hours vs. time 0 cell number),"Nucleofection with wild type Cas9 and CCR5-U43 gRNA plasmid DNA + UM171 treatment (40 nM, 2 hours before and 24 hours after)",1.5
